Test results: patent US8003632B2, “Cholinesterase inhibitors for treating inflammation” (priority 2004, dated 2011)
Counter-ions that a name gives are not always drawn. Like-named read-outs stand apart in the source and are kept apart here.

Columns and labels:
[1] = test system: murine model of lethal endotoxemia; format: in vivo, mice; settings: for mice survived: 14 days after endotoxin, vehicle none survived
[2] = test system: TNF-α; assay: Serum TNF-α (ELISA) in septic mice after cecal ligation and puncture; format: in vivo, BALB/c mice; settings: for decrease of serum level TNF-α compared to vehicle control: blood 6 h after treatment
Description: (§1) Cecal Ligation and Puncture (CLP) was performed as described in Fink and Heard, J. of Surg. Res. 49:186-196 (1990), Wichman et al., Crit. Care Med. 26:2078-2086 (1998) and Remick et al., Shock 4:89-95 (1995). Briefly, BALB/c mice were anesthetized with 100 mg/kg ketamine (Fort Dodge, Fort Dodge, Iowa) and 10 mg/kg of xylazine (Bohringer Ingelheim, St. Joseph, Mo.) intramuscularly. A midline incision was performed, and the cecum was isolated. A 6-0 prolene suture ligature was placed at a level 5.0 mm from the cecal tip away from the ileocecal valve.
The ligated cecal stump was then punctured once with a 22-gauge needle, and 2mm stool extruded. The cecum was then placed back into its normal intra-abdominal position. The abdomen was then closed with a running suture of 6-0 prolene in two layers, peritoneum and fascia separately to prevent leakage of fluid. All animals were resuscitated with a normal saline solution administered sub-cutaneously at 20 ml/kg of body weight. Each mouse received a subcutaneous injection of imipenem (0.5 mg/mouse) (Primaxin, Merck & Co., Inc., West Point, Pa.) 30 minutes after the surgery. Animals were then allowed to recuperate.
Twenty-four hours after surgery, mice were intraperitoneally administered either 0.01 mg/kg or 0.1 mg/kg Galantamine Hydrobromide (CalBioChem, San Diego, Calif.) or vehicle control (saline). Galantamine was prepared in saline to a final concentration of 10 mg/ml. Mice were euthanized 6 hours after treatment with Galantamine or vehicle control (30 hours after surgery) and blood was collected by cardiac puncture for TNF-α measurement. TNF-α was measured by ELISA (mouse ELISA kit from R&D Systems Inc., Minneapolis, Minn.).
Cecal ligation and puncture were performed as described above. Randomly selected mice were treated intraperitoneally with vehicle (saline, 200 ul) or tacrine (2.5 μg/kg or 0.25 μg/kg) twice daily for 3 days, starting 24 hours after surgery. Mice were monitored for survival twice daily for three weeks. […] TNF was measured by ELISA as discussed above. HMGB1 was measured in sera by Western blot as discussed above.

[3] = test system: HMGB1; assay: Serum HMGB1 (western blot) in septic mice after cecal ligation and puncture; format: in vivo
Description: as §1
The ligated cecal stump was then punctured once with a 22-gauge needle, and 2mm stool extruded. The cecum was then placed back into its normal intra-abdominal position. The abdomen was then closed with a running suture of 6-0 prolene in two layers, peritoneum and fascia separately to prevent leakage of fluid. […]
Cecal Ligation and Puncture (CLP) was performed as described above in Example 1. […] HMGB1 was measured by western blot using anti-HMG1 polyclonal antisera (U.S. Pat. No. 6,303,321) and standard methods. Band densities were measured using a Bio-Rad Imaging densitometer. […]
Cecal ligation and puncture were performed as described above. […] Mice were monitored for survival twice daily for three weeks. […] TNF was measured by ELISA as discussed above. HMGB1 was measured in sera by Western blot as discussed above.

[4] = test system: murine CLP model of sepsis; format: in vivo, mice
[5] = test system: TNF-α; assay: Serum TNF-α in endotoxemic rats after intracerebroventricular administration; format: in vivo; settings: ICV 1 hour before endotoxemia, doses tested 1-1000 ng/kg, dose of the result not stated
Description: Endotoxemia was induced in rats via intraperitoneal (IP) injection of endotoxin (lipopolysaccharide, LPS; E. coli 0111:B4, Sigma; 10 mg/ml in PBS) (10-30 mg/kg, IP). Rats were anesthetized with ketamine (10%) in xylazine and placed in a stereotatic head frame (Stoelting Co.). The incisor bar was adjusted until the plane defined by the lambda and bregma was parallel to the base plate. The needle of a Hamilton syringe ([…]) was stereotactically guided into lateral ventricle (0.8 mm posterior to bregma, 1.5 mm lateral to midline, 3.5 mm below the dura). Galantamine at 1, 10, 100 and 1000 ng/kg was dissolved in sterile endotoxin-free saline and administered over 2 min. Vehicle control (saline) was also administered over 2 min. The location of intracerebroventricular (i.c.v.) injections was confirmed by histological examination of the brain after the experiment. TNF-α was measured as described above.

[6] = test system: TNF; assay: Serum TNF (ELISA) in endotoxemic mice; format: in vivo, BALB/c mice
Description: Male BALB/c mice were injected intraperitoneally with 6 mg/kg endotoxin (lipopolysaccharide, E. coli 0111:B4, Sigma, St. Louis, Mo.; 10 mg/ml in pyrogen-free saline), which had been sonicated for 30 min. Galantamine (CalBioChem, San Diego, Calif.) at doses of 0.1, 1, 2 or 4 mg/kg or vehicle control were injected intraperitoneally one hour before endotoxin administration in anesthetized animals. One and half hours after endotoxin exposure, blood was harvested for TNF measurement.
Blood was centrifuged at 5,000 rpm (1,500×g) for 15 min and the supernatants were collected for TNF determination. Serum and supernatants were used for TNF protein analysis by ELISA (R&D Systems Inc., Minneapolis, Minn.) according to the manufacturer's instructions.

[7] = 2.5 μg/kg i.p. 24 h after CLP, blood 6 h later

SMILES: CN(C)C(=O)Oc1cccc([N+](C)(C)C)c1 [Neostigmine, Neostigmine methyl sulfate]
- mice survived ([1]; 0.1 mg/kg i.p. 30 minutes before endotoxin): about 50%

SMILES: Nc1c2c(nc3ccccc13)CCCC2 [Tacrine]
- effect on serum TNF in septic mice [2, 7]: significantly reduced
- effect on serum HMGB1 in septic mice [3, 7]: significantly reduced
- effect on survival in mice with polymicrobial sepsis ([4]; mouse, in vivo, ip): significantly improved survival
- mice survived ([4]; mouse, in vivo, ip): all
- survival from lethal sepsis ([4]; mouse, in vivo, ip): 100%

SMILES: COc1ccc2c3c1O[C@H]1C[C@@H](O)C=C[C@@]31CCN(C)C2 [Galantamine]
- decrease of serum level TNF-α compared to vehicle control ([2]; 0.01 mg/kg i.p. 24 h after CLP): approximately 50%
- decrease of serum level TNF-α compared to vehicle control ([2]; 0.1 mg/kg i.p. 24 h after CLP): ~80%
- decrease of serum level of HMGB1 compared to vehicle control ([3]; 0.1 mg/kg i.p. 24 h after CLP, blood 6 h after treatment): about 50%
- survival from lethal sepsis ([4]; 10 μg/kg i.p. twice daily, 3 days, from 24 h after CLP, monitored 3 weeks, vehicle 37%): 58%
- survival from lethal sepsis ([4]; 100 μg/kg i.p. twice daily, 3 days, from 24 h after CLP, monitored 3 weeks, vehicle 37%, p<0.05): 90%
- mice survived ([4]; Day 6, 10 ug/kg i.p. twice a day for 3 days from 24 h after CLP, vehicle 37%): 58%
- mice survived ([4]; Day 6, 100 ug/kg i.p. twice a day for 3 days from 24 h after CLP, vehicle 37%): 90%
- decrease of serum level TNF-α compared to vehicle control [5]: approximately 94%
- inhibition of serum TNF in endotoxemic mice ([6]; 2 mg/kg i.p. 1 h before endotoxin): nearly two-fold inhibition
- inhibition of serum TNF in endotoxemic mice ([6]; 4 mg/kg i.p. 1 h before endotoxin): nearly three-fold inhibition
- effect on serum TNF in endotoxemic mice ([6]; 1, 2 and 4 mg/kg i.p. 1 h before endotoxin, blood 1.5 h after endotoxin): significantly inhibited serum TNF
- mice survived ([1]; 4 mg/kg i.p. six hours before endotoxin): about 75%
- increase in survival ([1]; day 14, 1 mg/kg i.p. 1 h before endotoxin): about 15%
- increase in survival ([1]; day 14, 2 mg/kg i.p. 1 h before endotoxin): ~25%
- increase in survival compared with vehicle control ([1]; day 14, 4 mg/kg i.p. 1 h before endotoxin): about 90%
